Values joined by “and” are separate entries in the source; they are usually repeats but may differ in a detail not shown here. Equal values may be shown once. Inconclusive results are not listed.
System: nude mice, HT29 intrarenal xenograft, tumor weight T/C
Experiment: NCI In Vivo Anticancer Drug Screen. Data for tumor model HT29;CX-1 Human Adenocarcinoma (MER+) (intrarenal inoculation) in NU/NU Swiss (nude) mice
Conditions: endpoint: mean tumor weight change, higher = larger tumour
Procedure: The antitumor activity of compounds was measured in mice bearing transplantable tumors. Survival or tumor size were measured and the results are expressed as the measurement made in the treated group (T) divided by the measurement made in the vehicle treated control group (C). The tumor model used in this assay is HT29;CX-1 Human Adenocarcinoma (MER+) (intrarenal inoculation) in NU/NU Swiss (nude) mice

[1] = dose: 150.0 mg/kg/injection, schedule: Q04DX004 (sc), vehicle: saline with Tween-80
[2] = dose: 300.0 mg/kg/injection, schedule: Q04DX004 (sc), vehicle: saline with Tween-80
[3] = dose: 25.0 mg/kg/injection, schedule: Q04DX004 (sc), vehicle: Klucel (hydroxypropylcellulose) (HPC)
[4] = dose: 50.0 mg/kg/injection, schedule: Q04DX004 (sc), vehicle: Klucel (hydroxypropylcellulose) (HPC)
[5] = dose: 100.0 mg/kg/injection, schedule: Q04DX004 (sc), vehicle: saline with Tween-80
[6] = dose: 200.0 mg/kg/injection, schedule: Q04DX004 (sc), vehicle: saline with Tween-80

With `Cc1c(N)nc([C@H](CC(N)=O)NC[C@H](N)C(N)=O)nc1C(=O)N[C@H](C(=O)N[C@H](C)[C@@H](O)[C@H](C)C(=O)N[C@H](C(=O)NCCc1nc(-c2nc(C(=O)NCCC[S+](C)C)cs2)cs1)[C@@H](C)O)C(OC1OC(CO)C(O)C(O)C1OC1OC(CO)C(O)C(OC(N)=O)C1O)c1cnc[nH]1` (stereo partly drawn) the T/C (dose: 4.0 mg/kg/injection, schedule: Q01DX010 (sc), vehicle: saline) was 59 % of control, the T/C (dose: 6.25 mg/kg/injection, schedule: Q04DX004 (sc), vehicle: saline) was 116 % of control and the T/C (dose: 8.0 mg/kg/injection, schedule: Q01DX010 (sc), vehicle: saline) was 59 % of control. The T/C (dose: 8.0 mg/kg/injection, schedule: Q04DX004 (sc), vehicle: saline) was 111 % of control, the T/C (dose: 16.0 mg/kg/injection, schedule: Q04DX004 (sc), vehicle: saline) was 114 % of control and the T/C (dose: 25.0 mg/kg/injection, schedule: Q04DX004 (sc), vehicle: saline) was 160 % of control. The T/C (dose: 32.0 mg/kg/injection, schedule: Q04DX004 (sc), vehicle: saline) was 43 % of control, the T/C (dose: 50.0 mg/kg/injection, schedule: Q04DX004 (sc), vehicle: saline) was 113 % of control and the T/C (dose: 64.0 mg/kg/injection, schedule: Q01DX010 (sc), vehicle: saline) was 42 % of control.
With `C[n+]1c(/C=C\C=C\N2CCCCC2)sc2ccccc21` the T/C (dose: 1.5 mg/kg/injection, schedule: Q04DX004 (sc), vehicle: Klucel (hydroxypropylcellulose) (HPC)) was 84 % of control and the T/C (dose: 3.0 mg/kg/injection, schedule: Q04DX004 (sc), vehicle: Klucel (hydroxypropylcellulose) (HPC)) was 41 % of control.
For `CC(=O)O[C@H]1C(=O)[C@@]2(C)[C@H]([C@H](OC(=O)c3ccccc3)[C@]3(O)C[C@H](OC(=O)[C@H](O)[C@@H](NC(=O)c4ccccc4)c4ccccc4)C(C)=C1C3(C)C)[C@]1(OC(C)=O)CO[C@@H]1C[C@@H]2O`, the T/C (dose: 400.0 mg/kg/injection, schedule: Q01DX010 (sc), vehicle: Klucel (hydroxypropylcellulose) (HPC)) was 3 % of control and 12 % of control and 16 % of control.
In the case of `C[n+]1ccc(Nc2ccc(NC(=O)c3ccc(Nc4cc[n+](C)c5ccc(N)cc45)cc3)cc2)cc1`, the T/C (dose: 8.0 mg/kg/injection, schedule: Q04DX004 (sc), vehicle: distilled water + Tween-80) is reported as 74 % of control, the T/C (dose: 16.0 mg/kg/injection, schedule: Q04DX004 (sc), vehicle: distilled water + Tween-80) is reported as 211 % of control and the T/C (dose: 25.0 mg/kg/injection, schedule: Q04DX004 (sc), vehicle: distilled water + Tween-80) is reported as 118 % of control. For the same compound, the T/C (dose: 32.0 mg/kg/injection, schedule: Q04DX004 (sc), vehicle: distilled water + Tween-80) was 303 % of control and the T/C (dose: 50.0 mg/kg/injection, schedule: Q04DX004 (sc), vehicle: distilled water + Tween-80) was 51 % of control.
For `CCCCCCCC(=O)[O][Hg][CH2]C1COC([CH2][Hg][O]C(=O)CCCCCCC)CO1` (stereo not drawn), the T/C (dose: 37.5 mg/kg/injection, schedule: Q04DX004 (sc), vehicle: saline with Tween-80) was 110 % of control, the T/C (dose: 75.0 mg/kg/injection, schedule: Q04DX004 (sc), vehicle: saline with Tween-80) was 120 % of control and the T/C [1] was 47 % of control. For the same compound, the T/C [2] was 51 % of control.
In the case of `F[B-](F)(F)F`, the T/C (dose: 225.0 mg/kg/injection, schedule: Q04DX004 (sc), vehicle: gum acacia) is reported as 106 % of control, the T/C (dose: 450.0 mg/kg/injection, schedule: Q04DX004 (sc), vehicle: gum acacia) is reported as 85 % of control and the T/C (dose: 900.0 mg/kg/injection, schedule: Q04DX004 (sc), vehicle: gum acacia) is reported as 69 % of control.
In the case of `CC(=O)Nc1ccc(O)c(O)c1`, the T/C [1] is reported as 257 % of control, the T/C [2] is reported as 56 % of control and the T/C (dose: 600.0 mg/kg/injection, schedule: Q04DX004 (sc), vehicle: saline with Tween-80) is reported as 231 % of control. The T/C (dose: 2400.0 mg/kg/injection, schedule: Q04DX004 (sc), vehicle: saline with Tween-80) was 110 % of control.
In the case of `C/C(=N\N=C(/[Se])N1CC2CCC(CC2)C1)c1ccccn1`, the T/C (dose: 6.25 mg/kg/injection, schedule: Q04DX004 (sc), vehicle: Klucel (hydroxypropylcellulose) (HPC)) is reported as 60 % of control, the T/C (dose: 12.5 mg/kg/injection, schedule: Q04DX004 (sc), vehicle: Klucel (hydroxypropylcellulose) (HPC)) is reported as 83 % of control and the T/C [3] is reported as 81 % of control. For the same compound, the T/C [4] was 86 % of control.
In the case of `C#C[C@]1(O)CC[C@H]2[C@@H]3CCc4cc(O)ccc4[C@H]3CC[C@@]21C`, the T/C (dose: 600.0 mg/kg/injection, schedule: Q04DX004 (sc), vehicle: Klucel (hydroxypropylcellulose) (HPC)) is reported as 91 % of control, the T/C (dose: 1200.0 mg/kg/injection, schedule: Q04DX004 (sc), vehicle: Klucel (hydroxypropylcellulose) (HPC)) is reported as 83 % of control and the T/C (dose: 2400.0 mg/kg/injection, schedule: Q04DX004 (sc), vehicle: Klucel (hydroxypropylcellulose) (HPC)) is reported as 80 % of control.
For `C=C1N(C)c2ccccc2C1(C)C`, the T/C (dose: 50.0 mg/kg/injection, schedule: Q04DX004 (sc), vehicle: saline with Tween-80) was 66 % of control, the T/C [5] was 73 % of control and the T/C [6] was 94 % of control.
In the case of `CC(C#N)(C#N)N=Nc1ccc(Cl)cc1Cl`, the T/C [6] is reported as 116 % of control and the T/C (dose: 1600.0 mg/kg/injection, schedule: Q04DX004 (sc), vehicle: saline with Tween-80) is reported as 106 % of control.
`CCCCCCCCCCS(=O)CC(CO)NC(=O)/C=C/c1c(C)[nH]c(=O)[nH]c1=O` (stereo not drawn) was tested, and the T/C (dose: 9.38 mg/kg/injection, schedule: Q04DX004 (sc), vehicle: distilled water + Tween-80) was 90 % of control, the T/C (dose: 18.75 mg/kg/injection, schedule: Q04DX004 (sc), vehicle: distilled water + Tween-80) was 100 % of control and the T/C (dose: 37.5 mg/kg/injection, schedule: Q04DX004 (sc), vehicle: distilled water + Tween-80) was 80 % of control.
`Cc1c2cc[n+](C)cc2c(C)c2c1[nH]c1ccc(O)cc12` was tested, and the T/C (dose: 1.25 mg/kg/injection, schedule: Q04DX004 (sc), vehicle: water) was 360 % of control and the T/C (dose: 2.5 mg/kg/injection, schedule: Q04DX004 (sc), vehicle: water) was 120 % of control.
For `O=C1NC2(CCCCC2)C(=O)N1CCN(CCCl)CCCl`, the T/C (dose: 6.0 mg/kg/injection, schedule: Q01DX010 (sc), vehicle: saline) was 64 % of control, the T/C (dose: 24.0 mg/kg/injection, schedule: Q01DX010 (sc), vehicle: saline) was 21 % of control and 23 % of control and the T/C (dose: 48.0 mg/kg/injection, schedule: Q01DX010 (sc), vehicle: saline) was 23 % of control.
`COc1cccc2c1C(=O)c1c(O)c3c(c(O)c1C2=O)C[C@@](O)(C(=O)CO)C[C@@H]3OC1CC(N)C(OC)C(C)O1` (stereo partly drawn) was tested, and the T/C (dose: 3.13 mg/kg/injection, schedule: Q04DX004 (sc), vehicle: saline) was 207 % of control.
In the case of `Clc1ccc(C(c2ccccc2Cl)C(Cl)Cl)cc1` (stereo not drawn), the T/C (dose: 1200.0 mg/kg/injection, schedule: Q04DX004 (sc), vehicle: saline) is reported as 99 % of control, the T/C (dose: 2400.0 mg/kg/injection, schedule: Q04DX004 (sc), vehicle: saline) is reported as 64 % of control and the T/C (dose: 4800.0 mg/kg/injection, schedule: Q04DX004 (sc), vehicle: saline) is reported as 77 % of control. For the same compound, the T/C (dose: 9600.0 mg/kg/injection, schedule: Q04DX004 (sc), vehicle: saline) was 67 % of control.
`CCC1CN2C(=N1)c1ccccc1-c1cc(Cl)ccc12` (stereo not drawn) was tested, and the T/C (dose: 12.5 mg/kg/injection, schedule: Q01DX010 (sc), vehicle: saline with Tween-80) was 74 % of control, the T/C (dose: 25.0 mg/kg/injection, schedule: Q01DX010 (sc), vehicle: saline with Tween-80) was 37 % of control and the T/C (dose: 50.0 mg/kg/injection, schedule: Q01DX010 (sc), vehicle: saline with Tween-80) was 60 % of control. The T/C (dose: 100.0 mg/kg/injection, schedule: Q01DX010 (sc), vehicle: saline with Tween-80) was 89 % of control.
For `CCOC(=O)Nc1cc2c(c(N)n1)N=C(c1ccccc1)CN2`, the T/C (dose: 12.5 mg/kg/injection, schedule: Q04DX004 (sc), vehicle: saline with Tween-80) was 90 % of control and the T/C (dose: 25.0 mg/kg/injection, schedule: Q04DX004 (sc), vehicle: saline with Tween-80) was 104 % of control.
In the case of `O=[Te]=O`, the T/C [3] is reported as 170 % of control and the T/C [4] is reported as 74 % of control.
In the case of `CCCCCCCCCCCC(=O)NC1CC(O[C@H]2C[C@](O)(C(=O)CO)Cc3c(O)c4c(c(O)c32)C(=O)c2c(OC)cccc2C4=O)OC(C)C1O` (stereo partly drawn), the T/C (dose: 100.0 mg/kg/injection, schedule: Q01DX010 (sc), vehicle: water) is reported as 105 % of control, the T/C (dose: 200.0 mg/kg/injection, schedule: Q01DX010 (sc), vehicle: water) is reported as 68 % of control and the T/C (dose: 400.0 mg/kg/injection, schedule: Q01DX010 (sc), vehicle: water) is reported as 26 % of control.
In the case of `CC(Cc1ccc(O)cc1)NCC(O)c1ccc(O)c(O)c1` (stereo not drawn), the T/C [5] is reported as 106 % of control, the T/C [6] is reported as 91 % of control and the T/C (dose: 400.0 mg/kg/injection, schedule: Q04DX004 (sc), vehicle: saline with Tween-80) is reported as 89 % of control. The T/C (dose: 800.0 mg/kg/injection, schedule: Q04DX004 (sc), vehicle: saline with Tween-80) was 80 % of control.

Reference: PubChem BioAssay AID206 (DTP/NCI, 2004)
